Experiment [1] has as its target T1, ΔF508-CFTR (Homo sapiens, UniProt P13569, DEL508-508). Description: Fluorescence (YFP-H148Q/I152L) I− influx assay of ΔF508-CFTR potentiator activity in FRT cells. Also noted: expressed in transfected cells. It counts as cell-based. The settings on record: 27° C. 24 h, forskolin 20 μM, read-out: Ka. The procedure: Clonal populations of Fischer rat thyroid (FRT) epithelial cells stably co-expressing human ΔF508-CFTR and the high-sensitivity halide-sensing green fluorescent analog YFP-H148Q/I152L (Galietta et al., A.S. (2001) FEBS Lett. 499, 220-224) were generated by liposome transfection and limiting dilution with Zeocin/G418 selection. More than 100 clones were evaluated for high fluorescence and ΔF508-CFTR plasma membrane targeting after growth at 27° C. for 24 hours. For screening, cells were cultured on plastic in Coon's modified F12 medium supplemented with 10% fetal bovine serum, 2 mM L-glutamine, 100 U/ml penicillin, and 100 μg/ml streptomycin, and plated on black 96-well microplates (Corning-Costar 3904) at 30,000 cells/well. For short-circuit measurements cells were cultured on Snapwell permeable supports (Corning-Costar) at 500,000 cells/insert. Human nasal epithelium cells from CF patients were cultured on Snapwell inserts and allowed to differentiate in a hormone-supplemented medium (Galietta et al., Am. J. Physiol., […]). Some measurements were done using stably transfected FRT cells expressing YFP-H148Q and wildtype- or G551D-CFTR (Galietta et al., (2001) J. Biol. Chem. 276, 19723-19728). Patch clamp experiments were done on ΔF508-CFTR-expressing FRT cells plated in 35-mm Petri dishes.
Screening was carried out using a Beckman integrated system containing a 3-meter robotic arm, CO2 incubator containing microplate carousel, plate-washer, liquid handling workstation, bar code reader, delidding station, plate sealer, and two FluoStar fluorescence plate readers (Galaxy, BMG Lab Technologies), each equipped with dual syringe pumps and HQ500/20X ([…]) excitation and HQ535/30M (535±15 nm) emission filters (Chroma). Software was written in VBA (Visual Basic for Applications) to compute baseline-subtracted fluorescence slopes (giving halide influx rates).
For assay of ΔF508-CFTR potentiator activity the incubator (27° C., 90% humidity, 5% CO2/95% air) was loaded with forty-to-sixty 96-well plates containing FRT cells. After an 18-24 hour incubation plates were washed 3 times with PBS (300 μl/wash) leaving 50 μl PBS. 10 μl of PBS containing 120 μM forskolin was added, and after 5 min test compounds (0.6 μl of 0.25 mM DMSO solution) were added to each well to give 2.5 μM final compound concentrations. After 15 min, 96-well plates were transferred to a plate reader for fluorescence assay. Each well was assayed individually for I^− influx by recording fluorescence continuously (200 ms per point) for 2 seconds (baseline) and then for 12 seconds after rapid (<1 s) addition of 160 μL of isosmolar PBS in which 137 mM Cl^− was replaced by I^−. I^− influx rates were computed from initial fluorescence versus time-curve slopes (determined by 3rd order polynomial regression) after normalization for total fluorescence (background subtracted initial fluorescence). All compound plates contained negative control (DMSO vehicle alone) and positive controls (genistein, 5 μM and 50 μM). Assay analysis indicated a Z′-factor of >0.7 (Zhang et al., J. Biomol. Screen 4:67-73 (1999)).
The high-throughput screen was designed to identify compounds that activated ΔF508-CFTR when expressed at the cell plasma membrane. FRT epithelial cells co-expressing ΔF508-CFTR and a high sensitivity yellow fluorescent protein-based halide indicator were incubated at 27° C. for 24 h to permit ΔF508-CFTR plasma membrane targeting (FIG. 1, panel A). After washing, forskolin (20 μM) and test compounds (2.5 μM) were added to individual wells of 96-well plates. The I^− influx assay was carried out ˜15 min later by measurement of the time course of decreasing YFP fluorescence after creation of an inwardly-directed I^− gradient. A high concentration of forskolin was used to identify ΔF508-CFTR potentiators that may interact directly with ΔF508-CFTR rather than alter cAMP concentration. […]

For experiment [2], the system named is UTP/calcium activated Cl− channel. Description: UTP/calcium activated Cl− current, short circuit current in human bronchial epithelial cells. The experiment is classed as cell-based. The settings on record: pretreatment 2 μM, apical UTP. The procedure: (§1) An analysis of compound specificity was also performed.
The subject of experiment [3] is intracellular cAMP. The experiment is described as follows: cAMP enzymatic immunoassay of FRT cell lysates. The experiment is classed as cell-based, rat. The settings on record: compounds 2 μM, 10 minutes, forskolin 0.5 μM. As for the experimental part:
cAMP activity was measured using the BIOTRAK enzymatic immunoassay (Amersham) of FRT cell lysates after incubation with the compounds for 10 minutes in the presence of 0.5 μM forskolin.
as §1

The target in experiment [4] is T1, ΔF508-CFTR. The experiment is described as follows: Cell-attached patch-clamp of ΔF508-CFTR channel activity in FRT cells. The experiment is classed as cell-based. Also noted: expressed in transfected cells. Conditions: 100 nM, forskolin 20 μM. As for the experimental part: Experiments were performed in the cell-attached configuration of the patch-clamp technique on FRT cells expressing ΔF508-CFTR. Cells were seeded at a density of 10^4 cells/well and grown at 37° C. for 24-48 hours and then incubated for 24-48 hours at 27° C. to allow trafficking of the ΔF508 protein to the plasma membrane. Borosilicate glass pipettes were fire polished to obtain tip resistances of 2-4 MQ. Currents were sampled at 500 Hz using a patch-clamp amplifier (EPC-7, List, Darmstadt) and low-pass filtered using a 4-pole Bessel filter set at a cutoff frequency of 250 Hz and digitized at 500 Hz using an ITC-16 data translation interface (Instrutech). The extracellular (bath) solution contained (in mM): 150 NaCl, 1 CaCl2, 1 MgCl2, 10 glucose, 10 mannitol, and 10 TES (pH 7.4). The pipette solution contained (in mM): 120 CsCl, 1 MgCl2, 10 TEA-Cl, 0.5 EGTA, 1 Mg-ATP, and 10 Hepes (pH 7.3). Membrane conductances were monitored by alternating the membrane potential between +80 and −100 mV. Current-voltage relationships were generated by applying voltage pulses between −100 and +100 mV in 20 mV steps. Analysis of open channel probability (Po), mean channel open time (To), and mean channel closed time (Tc) was done using recordings of at least three minute intervals (Taddei et al., FEBS Lett. 558:52-56 (2004)). […]
For orientation: The patch-clamp technique gives a direct electrical read-out from membranes.

Experimental findings from patent US7939558B2, “Compounds having activity in increasing ion transport by mutant-CFTR and uses thereof” (The Regents of the University of California, priority 2004, dated 2011) are described below.

pEC50: −log10 of the molar value. Like-named read-outs stand apart in the source and are kept apart here.

T1 sequence (P13569 with tags, fused parts or gaps DEL508-508): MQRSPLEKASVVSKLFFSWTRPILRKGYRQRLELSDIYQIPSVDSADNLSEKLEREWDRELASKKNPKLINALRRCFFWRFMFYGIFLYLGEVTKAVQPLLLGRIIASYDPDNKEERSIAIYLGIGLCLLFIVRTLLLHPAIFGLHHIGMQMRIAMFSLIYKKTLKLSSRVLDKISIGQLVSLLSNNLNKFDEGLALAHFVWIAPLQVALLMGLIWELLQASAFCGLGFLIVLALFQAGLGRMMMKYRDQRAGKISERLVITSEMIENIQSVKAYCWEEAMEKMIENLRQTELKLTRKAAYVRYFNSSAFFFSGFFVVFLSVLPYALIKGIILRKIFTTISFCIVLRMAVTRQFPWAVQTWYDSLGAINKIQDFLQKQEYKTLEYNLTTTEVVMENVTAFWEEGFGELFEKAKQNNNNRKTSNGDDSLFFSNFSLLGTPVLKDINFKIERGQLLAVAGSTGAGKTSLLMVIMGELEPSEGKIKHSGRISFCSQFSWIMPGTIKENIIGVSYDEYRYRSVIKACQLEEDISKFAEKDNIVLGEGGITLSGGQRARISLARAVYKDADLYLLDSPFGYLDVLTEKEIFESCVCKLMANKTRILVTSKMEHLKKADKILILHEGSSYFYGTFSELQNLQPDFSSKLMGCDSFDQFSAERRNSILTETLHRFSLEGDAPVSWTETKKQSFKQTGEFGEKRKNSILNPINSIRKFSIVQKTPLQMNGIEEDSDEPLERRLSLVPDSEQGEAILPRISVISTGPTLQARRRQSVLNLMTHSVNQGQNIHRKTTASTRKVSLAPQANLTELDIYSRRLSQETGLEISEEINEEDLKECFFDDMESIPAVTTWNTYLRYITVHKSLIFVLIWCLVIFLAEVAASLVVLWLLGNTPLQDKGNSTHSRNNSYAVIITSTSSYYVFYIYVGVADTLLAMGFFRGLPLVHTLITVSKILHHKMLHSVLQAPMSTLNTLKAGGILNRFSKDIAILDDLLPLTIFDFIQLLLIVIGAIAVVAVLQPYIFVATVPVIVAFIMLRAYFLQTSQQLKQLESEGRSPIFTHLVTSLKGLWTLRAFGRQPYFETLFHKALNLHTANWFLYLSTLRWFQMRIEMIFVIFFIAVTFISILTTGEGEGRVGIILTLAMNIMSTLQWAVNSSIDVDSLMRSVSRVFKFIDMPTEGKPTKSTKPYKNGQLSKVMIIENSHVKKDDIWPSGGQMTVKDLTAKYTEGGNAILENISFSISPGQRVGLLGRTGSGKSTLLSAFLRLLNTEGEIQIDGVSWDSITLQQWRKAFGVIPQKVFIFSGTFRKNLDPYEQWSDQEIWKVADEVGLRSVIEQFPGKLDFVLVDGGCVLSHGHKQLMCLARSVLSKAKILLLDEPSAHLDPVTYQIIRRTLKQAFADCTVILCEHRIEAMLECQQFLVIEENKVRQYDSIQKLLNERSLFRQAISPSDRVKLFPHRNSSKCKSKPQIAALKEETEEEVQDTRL

Regarding `CC(C)c1ccc(NC(=O)C(c2ccccc2)N(C)C(=O)Cc2c[nH]c3ccccc23)cc1` (centres unmarked) [Compound P-1, 2-[(2-1H-Indol-3-yl-acetyl)-methyl-amino]-N-(4-isopropyl-phenyl)-2-phenyl-acetamide], the pEC50 in experiment [1] (phenylglycine containing compounds) is 6.52. Moreover, the “effect on magnitude or kinetics of calcium-activated Cl− current” value in experiment [2] was “no effect”. The cAMP level entry in experiment [3] is listed as “did not increase cAMP above the level induced by forskolin”. Besides, the ΔF508-CFTR channel activity result in experiment [4] was “large increase in channel activity”.
In the case of `C=CCNC(=O)c1c[nH]c2ccc(S(=O)(=O)N(C)c3ccccc3OCC)cc2c1=O` [Compound S-1, 6-[(2-Ethoxy-phenyl)-methyl-sulfamoyl]-4-oxo-1,4-dihydro-quinoline-3-carboxylic acid allylamide], the pEC50 in experiment [1] (sulfonamide containing compounds) was 6.52. Besides, the “effect on magnitude or kinetics of calcium-activated Cl− current” value in experiment [2] was “no effect”. The cAMP level entry in experiment [3] is given as “did not increase cAMP above the level induced by forskolin”. Further, the ΔF508-CFTR channel activity result in experiment [4] is “large increase in channel activity”.
